Results published in article PMC6788984, “High-potency ligands for DREADD imaging and activation in rodents and monkeys” (Nature Communications, 2019).
“And” between values parts separate entries of the source, which are not always exact repeats. Identical values can stand only once.

Tests used:
hM4Di [1] = target: T1, hM4Di (Homo sapiens, UniProt P08173, A203G/Y113C); assay: [18F]JHU37107 PET in a monkey expressing hM4Di in the right amygdala; assay type: in vivo, rhesus monkey (Macaca mulatta); parameters: expressed in transfected cells; host or cells: rhesus monkey (Macaca mulatta) right amygdala, lentivirus-transduced neurons
T1 sequence (P08173 1-479 Y113C/A203G): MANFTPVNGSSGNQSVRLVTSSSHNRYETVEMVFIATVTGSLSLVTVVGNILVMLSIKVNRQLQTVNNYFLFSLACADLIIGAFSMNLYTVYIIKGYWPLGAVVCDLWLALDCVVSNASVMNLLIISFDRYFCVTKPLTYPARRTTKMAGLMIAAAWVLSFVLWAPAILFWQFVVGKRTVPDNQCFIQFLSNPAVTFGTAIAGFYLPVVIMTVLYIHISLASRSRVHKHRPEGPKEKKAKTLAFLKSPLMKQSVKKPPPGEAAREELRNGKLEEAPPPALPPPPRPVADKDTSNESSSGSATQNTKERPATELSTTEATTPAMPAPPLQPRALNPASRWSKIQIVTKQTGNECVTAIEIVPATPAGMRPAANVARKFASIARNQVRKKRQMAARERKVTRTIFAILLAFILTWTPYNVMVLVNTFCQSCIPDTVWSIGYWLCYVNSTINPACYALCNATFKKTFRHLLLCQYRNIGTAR
Protocol: Lentivirus expressing an hM4Di-CFP fusion protein under an hSyn promoter[11] with a titer of >10^9 infectious particles was loaded into a 100 µL glass syringe (Hamilton Co., MA). The 31-gauge needle of the syringe was sheathed with a silica capillary (450 µm OD) to create a step 1 mm from the base of the aperture. The syringe was mounted in a Nanomite pump (Harvard Apparatus, Cambridge, MA). The needle was lowered through the incision in the dura mater to each of the pre-calculated target sites and 10 or 20 µL was infused at a rate of 1 µL min^−1. Each monkey received a total of between 10 and 12 injections (for a total injection volume of 120–240 µL). Post-infusion, the needle was left in situ for 10 min after each injection to allow pressure from the infusate to dissipate. The needle was then slowly removed. At the completion of the injection series the soft tissues were sutured together in anatomical layers.
(§1) [^18F]JHU37107 was prepared via the no-carrier-added ^18F-fluorination using an FDG Nuclear Interface module (Muenster, Germany). Briefly, 4 mg precursor (8-chloro-11-(4-ethylpiperazin-1-yl)-5H-dibenzo[b,e][1,4]diazepin-2-ol) and 8 mg tris(acetonitrile)cyclopentadienylruthenium(II)hexafluorophosphate (STREM, Boston, MA) were dissolved in ethanol (0.3 mL), the solution was heated at 85 °C for 25 min and evaporated to dryness under a stream of argon gas. The residue was dissolved in DMSO (0.5 mL) and acetonitrile (0.5 mL) and the solution was added to a dry complex of [^18F]fluoride and 9 mg 1,3-bis(2,6-di-i-propylphenyl)-2-chloroimidazolium chloride (STREM). The reaction mixture was heated at 130 °C for 30 min, diluted with mixture of 0.5 mL acetonitrile, 0.5 mL water and 0.03 mL TFA and injected onto a semi-preparative HPLC column (Luna C18, 10 micron, 10 mm × 250 mm) and eluted with 23:77 (v:v) acetonitrile:water (0.1% trifluoroacetic acid) at a flow rate of 10 mL min^−1. The radioactive peak corresponding to [^18F]JHU37107 (tR = 9.9 min) was collected in a reservoir containing 50 mL of water and 3 mL aq 8.4% NaHCO3 solution. The diluted product was loaded onto a solid phase extraction cartridge (Waters Oasis HLB plus light) and rinsed with 10 mL sterile saline. The product was eluted with 1000 µL of ethanol through a sterile 0.2 μm filter into a sterile, pyrogen-free vial and 10 mL saline was added through the same filter. The final product [^18F]JHU37107 was then analyzed by analytical HPLC (Luna C18, 10 micron, 4.6 mm × 250 mm; mobile phase 23:77 (v:v) acetonitrile:water (0.1% trifluoroacetic acid), flow rate of 3 mL min^−1; tR = 6.4 min) using a UV detector at 254 nm to determine the radiochemical purity (>95%) and specific radioactivity (152–188 GBq μmol^−1 (4100–5070 mCi μmol^−1)) at the time synthesis ended.
All macaque studies were acquired dynamically on the Focus 220 PET scanner (Siemens Medical Solutions, Knoxville, TN). The Focus 220 is a dedicated pre-clinical scanner with a transaxial FOV of 19 cm and an axial FOV of 7.5 cm. Image resolution is <2 mm within the central 5 cm FOV.
After initial evaluation the monkey was sedated with ketamine (10 mg kg^−1) followed by ketoprofen (as an analgesic) and glycopyrrolate (for salvia reduction), all weight dependent IM injections. The monkey would then be placed in the supine position, intubated with a tracheal tube. […] The monkey was always monitored while anesthetized. […]

hM4Di [2] = target: T1, hM4Di; assay: [18F]JHU37107 PET in rats expressing hM3Dq or hM4Di in the right motor cortex; assay type: in vivo, rat; parameters: expressed in transfected cells; host or cells: rat right motor cortex, AAV-transduced neurons; details: unilateral hM4Di in right motor cortex
Protocol: as §1, with “The radioactive peak corresponding to [^18F]JHU37107 (tR = 9.9 min) was collected in a reservoir containing 50 mL of water and 3 mL aq 8.4% NaHCO3 solution. The diluted product was loaded onto a solid phase extraction cartridge (Waters Oasis HLB plus light) and rinsed with 10 mL sterile saline. The product was eluted with 1000 µL of ethanol through a sterile 0.2 μm filter into a sterile, pyrogen-free vial and 10 mL saline was added through the same filter.” left out, “ended. […]” for “ended.”

[3] = Radiometabolite analysis of [18F]JHU37107 in monkey plasma / whole blood (radio-HPLC); assay type: in vivo, rhesus monkey (Macaca mulatta)
Protocol: To determine the arterial input function for the radiotracers injected in rhesus monkeys radioligand concentrations in the arterial plasma were corrected by the unchanged parent fraction. […] Blood samples were immediately sampled for gamma counting, and plasma harvested by centrifugation for gamma counting and radio-HPLC analysis. The unchanged plasma parent fractions were determined by radio-HPLC on an X-terra® C18 column (10 µm, 7.8 mm × 300 mm, Waters Corp., Milford, MA), and eluted with MeOH:H2O:Et3N (80:20:0.1; by volume) at an isocratic flow rate of 4.0 mL min^−1. Eluates were monitored with an in-line flow-through NaI(Tl) scintillation detector (Bioscan). Data were stored and analyzed on a PC using the software “Bio-ChromeLite”. The collection of data for each radiochromatogram was decay corrected according to its respective HPLC injection time. Plasma free fraction was determined according to our previous methods.

hM4Di [4] = target: T1, hM4Di; assay: Autoradiography: direct binding of [3H]clozapine, [3H]C21, [3H]C13 in monkey brain sections expressing hM4Di; parameters: expressed in transfected cells; host or cells: rhesus monkey (Macaca mulatta) right amygdala, lentivirus-transduced neurons; species or system rhesus monkey (Macaca mulatta); unit not given here; details: Fig. 1 panel H; [3H]-labelled ligand; individual values; listed as CLZ
Source text: Flash frozen tissue (both rodents and the monkey) was sectioned (20 µm) on a cryostat (Leica, Germany) and thaw mounted onto ethanol-washed glass slides. […] Slides were air dried and placed in a Hypercassette™ (Amersham Biosciences) and covered with a BAS-TR2025 Storage Phosphor Screen (FujiFilm, Japan). The slides were exposed to the screen for 5–7 days and imaged using a phosphor imager (Typhoon FLA 7000; GE Healthcare).

WT mice = assay: [18F]FDG PET metabolic mapping in WT mice; assay type: in vivo, mouse; details: 0.1 mg/kg
Protocol: Mice (D1-hM3Dq, D1-hM4Di or WT littermates, see above) were habituated to experimenter handling and fasted 16 h before the experiment. On the day of the experiment, mice received an IP injection of vehicle (1 ml kg^−1) and were placed back into their home cages. Ten minutes later, mice were injected (IP) with 11 MBq of 2-deoxy-2-[^18F]fluoro-D-glucose (FDG, Cardinal Health) and placed back into their home cages. After 30 min, mice were anesthetized with 1.5% isoflurane, placed on a custom-made bed of a nanoScan small animal PET/CT scanner (Mediso Medical Imaging Systems) and scanned for 20 min on a static acquisition protocol, followed by a CT scan. […] Voxel-based repeated measures with Student’s t test comparing baseline to drug were performed, and the resulting parametric images were filtered for statistically significant (p < 0.05) clusters larger than 100 contiguous voxels. All statistical parametric mapping analyses were performed using Matlab R2016 (Mathworks) and SPM12 (University College London).

[5] = tested on: mu, kappa, and delta opioid receptors; assay: Binding and enzyme target profile screen (Eurofins); details: competitive binding screen, 10 uM
Protocol: These experiments were performed by an outside vendor (Eurofins, France). […] In each experiment, the respective reference compound was tested concurrently with the test compound to assess the assay reliability. […] Following incubation, the samples were filtered rapidly under vacuum through glass fiber filters presoaked in a buffer and rinsed several times with an ice-cold buffer using a 48-sample or 96-sample cell harvester. The filters were counted for radioactivity in a scintillation counter using a scintillation cocktail.

hM4Di [6] = target: T1, hM4Di; assay: [35S]GTPgammaS autoradiography in rat brain sections expressing hM4Di; assay type: biochemical; parameters: expressed in transfected cells; host or cells: rat right motor cortex, AAV-transduced neurons; details: 10 nM
Protocol: Sections were encircled with a hydrophobic membrane using a PAP pen (Sigma-Aldrich). Preincubation buffer was pipetted onto each slide and allowed to incubate for 20 min (50 mM Tris-HCl, 1 mM EDTA, 5 mM MgCl2 and 100 mM NaCl). The preincubation buffer was removed via aspiration and each slide was loaded with GDP in the presence of DPCPX and allowed to incubate of 60 min (Preincubation buffer, 2 mM GDP, 1 μM DPCPX, Millipore water). […] The [^35S]GTPγS cocktail was removed via aspiration and slides were washed in ice-cold washing buffer (50 mM Tris-HCl, 5 mM MgCl2, pH 7.4) for 5 min (2×) followed by a 30 s dip in ice-cold deionized water. Hydrophobic membrane was removed with a cotton swab and xylene and slides were placed into a […] covered by a BAS-SR2040 phosphor screen (FujiFilm; GE Healthcare). The slides were exposed to the phosphor screen for 3-5 days and imaged using a phosphor imager (Typhoon FLA 7000; GE Healthcare).

P-gp = target: T2, P-gp (Homo sapiens, UniProt P08183); assay: P-glycoprotein (P-gp) substrate assay in Caco-2 cells with and without verapamil; assay type: in vitro ADME; details: Caco-2, efflux ratio with/without verapamil
T2 construct: host or cells: Caco-2
T2 sequence (P08183 whole entry): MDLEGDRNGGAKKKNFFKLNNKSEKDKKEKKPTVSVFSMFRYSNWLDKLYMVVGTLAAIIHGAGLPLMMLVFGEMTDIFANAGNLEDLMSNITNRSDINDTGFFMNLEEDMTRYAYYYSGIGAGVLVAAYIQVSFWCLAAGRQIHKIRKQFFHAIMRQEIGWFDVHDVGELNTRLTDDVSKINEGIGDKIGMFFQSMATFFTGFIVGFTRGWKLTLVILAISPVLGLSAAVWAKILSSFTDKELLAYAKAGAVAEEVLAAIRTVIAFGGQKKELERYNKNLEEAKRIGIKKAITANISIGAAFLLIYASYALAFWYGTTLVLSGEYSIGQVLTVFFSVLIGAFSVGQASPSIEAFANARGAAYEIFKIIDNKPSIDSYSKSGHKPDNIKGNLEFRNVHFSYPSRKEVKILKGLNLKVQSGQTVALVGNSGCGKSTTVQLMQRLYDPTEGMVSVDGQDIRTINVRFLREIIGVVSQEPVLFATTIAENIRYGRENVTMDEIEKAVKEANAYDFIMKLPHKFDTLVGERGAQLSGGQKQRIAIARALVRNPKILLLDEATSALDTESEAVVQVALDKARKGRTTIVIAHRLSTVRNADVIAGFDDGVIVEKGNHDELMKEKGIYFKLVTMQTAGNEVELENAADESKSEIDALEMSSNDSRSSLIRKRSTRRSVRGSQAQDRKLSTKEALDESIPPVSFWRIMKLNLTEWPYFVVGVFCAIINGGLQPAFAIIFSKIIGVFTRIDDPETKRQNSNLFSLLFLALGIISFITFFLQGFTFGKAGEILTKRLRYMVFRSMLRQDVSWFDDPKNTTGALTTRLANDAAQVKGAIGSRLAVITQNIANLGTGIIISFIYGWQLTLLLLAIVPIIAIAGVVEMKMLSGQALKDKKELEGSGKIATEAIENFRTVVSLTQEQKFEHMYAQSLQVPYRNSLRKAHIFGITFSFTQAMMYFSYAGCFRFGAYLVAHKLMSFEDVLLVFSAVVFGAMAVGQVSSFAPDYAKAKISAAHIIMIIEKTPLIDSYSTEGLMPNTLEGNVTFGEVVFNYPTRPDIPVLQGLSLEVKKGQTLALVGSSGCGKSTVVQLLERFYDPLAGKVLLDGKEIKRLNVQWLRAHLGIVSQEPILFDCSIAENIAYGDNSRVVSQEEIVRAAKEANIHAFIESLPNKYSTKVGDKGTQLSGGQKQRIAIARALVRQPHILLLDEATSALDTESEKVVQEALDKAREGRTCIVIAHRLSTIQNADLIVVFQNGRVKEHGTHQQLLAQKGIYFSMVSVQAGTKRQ
Protocol: These experiments were performed by an outside vendor (Eurofins, France). C21 was tested in P-gp substrate assessment assays at 10 µM. The A to B and B to A permeability was measured in Caco-2 cells in the presence and absence of verapamil, a P-gp inhibitor. Efflux ratios (E) were calculated based on the apparent B–A and A–B permeability with and without verapamil. In each experiment, the respective reference compound was tested concurrently with the test compound to assess the assay reliability. Fluorescein was used as the cell monolayer integrity marker. Fluorescein permeability assessment (in the A–B direction at pH 7.4 on both sides) was performed after the permeability assay for the test compound.

[7] = tested on: untransfected HEK-293 cells; assay: Negative controls of the functional assays: HEK-293 cells without DREADD; assay type: cell-based, human
Protocol: BRET assays were performed to detect receptor ligand-induced Gαo1 protein activation. […] Forty-eight hour after transfection cells were harvested, washed and resuspended in phosphate-buffered saline (PBS). Approximately, 200,000 cells/well were distributed in 96-well plates, and 5 µM Coelenterazine H (substrate for luciferase) was added to each well. Five minutes after addition of Coelenterazine H, ligands were added to each well. The fluorescence of the acceptor was quantified (excitation at 500 nm and emission at 540 nm for 1-s recordings) in a PheraStar FSX plate reader (BMG Labtech) to confirm the constant expression levels across experiments. In parallel, the BRET signal from the same batch of cells was determined as the ratio of the light emitted by mVenus (510–540 nm) over that emitted by RLuc (485 nm). Results were calculated for the BRET change (BRET ratio for the corresponding drug minus BRET ratio in the absence of the drug) 5 min after the addition of the ligands.
Intracellular Ca^2+ concentration was monitored using the fluorescent Ca^2+ biosensor GCaMP6f. HEK-293 cells were transfected with 7 µg/dish of the cDNA encoding for hM3Dq (Addgene #89149) or hM4Di (Addgene #89150) and 7 µg/dish of GCaMP6. Forty-eight hours after transfection, cells were harvested, washed, resuspended in Mg^2+-free Locke’s buffer pH 7.4 (154 mM NaCl, 5.6 mM KCl, 3.6 mM NaHCO3, 2.3 mM CaCl2, and 5 mM HEPES) containing 5.6 mM of glucose and approximately 200,000 cells/well were distributed in black 96-well plates. Increasing concentrations of the indicated compound were added to the cells and fluorescence intensity (excitation at 480 nm, emission at 530 nm) was measured at 18-s intervals during 250 s using a PHERAstar FSX (BMG Labtech). The net change in intracellular Ca^2+ concentration was expressed as F − F0 where F is the fluorescence at a given concentration of ligand and F0 is the average of the baseline values (fluorescence values of buffer-treated wells).

In the case of `CCN1CCN(C2=Nc3cc(Cl)ccc3Nc3ccc([18F])cc32)CC1` [[^18F]JHU37107], the pharmacokinetic properties (hM4Di [1]) was “favorable pharmacokinetic properties”, the “PET labelling of hM4Di” value (hM4Di [1]; hM4Di in right amygdala) was “able to directly label hM4Di receptors” and the “PET visualization of hM4Di” value (hM4Di [2]) was “permitted hM4Di visualization in both the AAV injection site as well as at known proximal and distal anatomical projection sites”. The “parent radioactivity composition of plasma” value ([3]; in vitro monkey whole blood, 30 min incubation at room temperature) was 49.7%, the “parent radioactivity composition of plasma” value ([3]; monkey plasma, 30 min after IV administration) was 56% and the “parent radioactivity composition of plasma” value ([3]; monkey plasma, 180 min after IV administration) was 24.2%.

With `CN1CCN(C2=Nc3cc(Cl)ccc3Nc3ccccc32)CC1` [clozapine] the “tritiated ligand binding in brain tissue, CPu” value (hM4Di [4]) was 109.018 and 115.173 and 108.688 and 86.4656 and 88.6824 and 91.973, the “tritiated ligand binding in brain tissue, CTX” value (hM4Di [4]) was 88.2005 and 122.029 and 119.221 and 97.205 and 89.8389 and 100.22 and the “tritiated ligand binding in brain tissue, hM4Di” value (hM4Di [4]) was 176.387 and 144.183 and 141.333 and 201.955 and 168.154 and 164.257. For the same molecule, the “brain metabolic activity ([18F]FDG)” value (WT mice) was “did not produce any significant changes in brain glucose metabolism”, the “brain metabolic activity ([18F]FDG)” value (WT mice; listed as CLZ) was “did not show any significant changes in brain metabolic activity” and the “binding to opioid receptors” value [5] was “does not”. For the same molecule, the “hM4Di activation measured as [35S]GTPgammaS binding” value (hM4Di [6]) was “induces significantly greater hM4Di activation”, the P-gp substrate (P-gp) was “none of these compounds is a substrate for P-gp” and the “functional response in HEK-293 cells lacking DREADDs” value [7] was “Neither clozapine nor C21 produced detectable functional responses”. For the same molecule, the “functional response, BRET (Go-alpha-Rluc8, beta1, gamma2-mVenus), no DREADD” value ([7]; HEK-293 cells) was “did not show any functional response” and the “functional response, GCaMP6f, no DREADD” value ([7]; HEK-293 cells) was “did not show any functional response”.
